In article PMC4077696 (PLoS Biology, 2014) one finds IC50 data, which are given here for one compound.

Structures can show the parent of a compound that is named as a salt.

Usually IC50 stands for the midpoint of a concentration-inhibition curve.

This test has as its target beta-secretase (BACE-1) (Homo sapiens, UniProt P56817). Briefly: Off-target activity against human aspartyl protease BACE-1. Type of test: biochemical.

Chain of beta-secretase (BACE-1) (P56817 46-501): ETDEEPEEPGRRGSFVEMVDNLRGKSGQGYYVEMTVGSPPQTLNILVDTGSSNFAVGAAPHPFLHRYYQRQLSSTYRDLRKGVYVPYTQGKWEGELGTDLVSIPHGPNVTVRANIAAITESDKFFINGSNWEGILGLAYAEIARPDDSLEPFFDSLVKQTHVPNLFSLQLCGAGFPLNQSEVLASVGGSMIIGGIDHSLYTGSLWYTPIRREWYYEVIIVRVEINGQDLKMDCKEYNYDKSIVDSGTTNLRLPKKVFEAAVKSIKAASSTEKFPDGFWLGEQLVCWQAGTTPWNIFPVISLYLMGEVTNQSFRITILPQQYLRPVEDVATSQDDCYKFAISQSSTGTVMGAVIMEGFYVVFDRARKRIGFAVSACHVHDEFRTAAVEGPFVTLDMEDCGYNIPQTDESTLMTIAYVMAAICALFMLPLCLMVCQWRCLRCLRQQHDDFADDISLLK

For the compound `CC(C)C[C@H](NC(=O)[C@@H](NC(=O)[C@H](CCCNC(=N)N)NS(=O)(=O)Cc1ccccc1)C(C)C)[C@@H](O)CC(=O)NCCc1ccccc1` [compound 916, PhCH2SO2-Arg(NH2)-Val-Sta-NH(CH2)2Ph .TFA], the concentration for half-maximal inhibition (IC50) was over 100 µM.
